Measurements from article PMC11215747, “Improved Rigidin-Inspired Antiproliferative Agents with Modifications on the 7-Deazahypoxanthine C7/C8 Ring Systems” (Journal of Medicinal Chemistry, 2024).
Entries after “also recorded” stand apart in the source; their conditions may differ. Like-named read-outs stand apart in the source and are kept apart here.

What was measured:
PNT1A cells = assay: MTT cytotoxicity assay against normal epithelial cell line PNT1A; assay type: cell-based; details: Homo sapiens, PNT1A
Protocol: (§1) The 3-(4,5-dimethylthiazol-2-yl)-2,5-diphenyltetrazolium bromide (MTT) assay was employed to evaluate the antiproliferative activities of the synthesized 7-deazahypoxathine analogues. The HeLa, PNT1A, or PANC-1 cell lines were assessed by trypsinizing and seeding 4 × 10^3 cells per well into 96-well plates. Synthesized compounds were dissolved in DMSO at a concentration of either 50 mM or 100 mM before cell treatment. Cells were grown for 24 h and then treated with compounds at concentrations ranging from 0.04 to 100 μM and incubated for 48 h in 200 μL media. Twenty microliters of MTT reagent in serum-free medium (5 mg/mL) was added to each well and incubated further for 2 h. Media was removed and the resulting formazan crystals were resolubilized in 200 μL of DMSO. A Thermomax Molecular Device plate reader was utilized to measure A490. Experiments were performed in quadruplicate and repeated at least twice for each compound. The control comprised of cells treated with 0.1% DMSO. One micromolar phenyl arsine oxide (PAO) was utilized as a positive killing control.

HeLa cells [1] = assay: Annexin V apoptosis assay and cell-fate tracking in HeLa cells; assay type: cell-based, Human; details: 20 nM; for apoptosis at the 30 hour time point (Annexin V fluorescence): 6 biological replicates, one-way ANOVA amongst compounds; for total numbers of cells that died following mitotic arrest: single-cell tracking, >130 cells per treatment
Protocol: To directly assess apoptosis in living cells, HeLa cells were plated (six biological replicates per condition) in 96-well Imagelock Plates (Sartorius BA-04855) at a density of 1,562.5 cells/cm^2. The following day, cells were placed in media containing IncuCyte Annexin V Dye (Sartorius 4642) supplemented with either 0.1% Dimethyl sulfoxide or test compounds (20 nM), and plates were placed in a Sartorius Incucyte S3 live cell imaging system. Plates were scanned hourly, with phase contrast and green fluorescence images were acquired at three positions per well. Raw fluorescence data was processed using Incucyte software, and Prism Graphpad was used for data visualization and statistical analysis. To track individual cell fates, combined phase contrast/fluorescence time lapse sequences were exported from multiple wells per condition, and cell fates individual cells were scored and tabulated using Graphpad Prism software.

MCF-7 cells = test system: MCF-7 cells; design: method as in PMID 26641132; details: cited from earlier work
human colon cancer lines = test system: human colon cancer lines; design: method as in PMID 26641132; details: several human colon cancer lines; cited from earlier work
colon cancer = test system: colon cancer; design: method as in PMID 26641132; details: mouse model for colon cancer, 3 mg/kg; cited from earlier work
[2] = test system: WI38 embryonic lung fibroblast cell line; design: method as in PMID 26641132; details: fold less active; cited from earlier work
HeLa cells [3] = assay: MTT antiproliferative assay against HeLa cells; assay type: cell-based, Human; details: Homo sapiens, MTT, 48 h, average and SD from two independent determinations, each in quadruplicate (footnote c), read-out: GI50 (μM) ± SD
Protocol: as §1, with “control. […]” for “control.”

PANC-1 cells = assay: MTT cytotoxicity assay against PANC-1 cells; assay type: cell-based; details: Homo sapiens; PANC-1 cell line
Protocol: as §1

tubulin = molecular target: T1, tubulin (Sus scrofa, UniProt P02554); assay: Fluorescence-based tubulin polymerization assay; assay type: biochemical; details: 25 μM, relative to 1% DMSO control, averaged from two experiments
T1 construct: purchased Cytoskeleton, Inc
Protocol: The fluorescence-based tubulin polymerization assay from Cytoskeleton, Inc. was used. […] The tubulin reaction mixture was prepared per manufacturer’s instructions, kept on ice, and used within ∼15 min of preparation. A Biotek Synergy H4 hybrid multimode plate reader was preheated to 37 °C. Prior to starting the assay, a half-area black 96-well plate was preheated within the plate reader. A volume of 5 μL of each of the tested samples was pipetted into separate wells of the plate and incubated in the warm plate reader for 1 min.

HeLa cells [4] = assay: Microtubule organization by immunolabeling in HeLa cells; assay type: cell-based, Human; details: 4 h
Protocol: To examine microtubule morphology in rigidin-treated cells, HeLa cells were incubated for 4 h in the presence or absence of test compound before being fixed with 3.7% formaldehyde in PBS and permeabilized with 0.1% Triton X-100 in PBS. After blocking the cells with 3% bovine serum albumin in PBS, they were probed with antibodies for the centromere marker CENP-B (Abcam, code ab25734) and tubulin (Sigma, code sc-53029), which were detected with Alexa Fluor-labeled secondary antibodies (Thermofisher). Hoechst 33342 (1 mg/mL, Thermofisher H3570) was used to stain DNA. Samples were mounted on glass slides and imaged using Andor Dragonfly 505 spinning disk confocal system mounted on an Olympus IX83 inverted microscope. Figures were created with Adobe Photoshop CS5. All drugs were resuspended in DMSO, and 0.1% DMSO served as a carrier control.

HeLa cells [5] = assay: Live cell imaging of EGFP-tubulin expressing HeLa cells; assay type: cell-based, Human; details: 7.5 nM (50% of GI50), 4 h
Protocol: HeLa cells were plated on 35 mm glass-bottomed Mattek dishes (Mattek, code P35G-1.5–14-C). Next day, transient transfection of EGFP-tubulin was performed using a Lipofectamine 2000 (Thermofisher code 11668019) according to the manufacturer’s instructions. After 6 h of transfection, cells were cultured in fresh media overnight before being treated with either 0.1% DMSO or 7.5 nM analogue 33 for 4 h. To visualize chromatin, cells were cultured in the presence the cell permeant NucSpot Live nuclear stain (Biotium code 40082) for 60 min prior to imaging. Cells were imaged live using an Andor Dragonfly 505 spinning disk confocal system mounted on an Olympus IX83 inverted microscope. Cell viability was maintained by an Oko Touch prewarmed (37 °C) temperature-controlled microscope stage supplied with 5% CO2. Z-stacks (10 planes at […] intervals) were acquired every 2 min using a 60× Aprochromat silicon objective (NA 1.30) and an Andor iXon 888 EMCCD camera driven by Andor Fusion software. Fusion IMS files were converted to tiff images and avi movies using FIJI, and figures were prepared in Adobe Photoshop CS5.

T1 sequence (P02554 whole entry): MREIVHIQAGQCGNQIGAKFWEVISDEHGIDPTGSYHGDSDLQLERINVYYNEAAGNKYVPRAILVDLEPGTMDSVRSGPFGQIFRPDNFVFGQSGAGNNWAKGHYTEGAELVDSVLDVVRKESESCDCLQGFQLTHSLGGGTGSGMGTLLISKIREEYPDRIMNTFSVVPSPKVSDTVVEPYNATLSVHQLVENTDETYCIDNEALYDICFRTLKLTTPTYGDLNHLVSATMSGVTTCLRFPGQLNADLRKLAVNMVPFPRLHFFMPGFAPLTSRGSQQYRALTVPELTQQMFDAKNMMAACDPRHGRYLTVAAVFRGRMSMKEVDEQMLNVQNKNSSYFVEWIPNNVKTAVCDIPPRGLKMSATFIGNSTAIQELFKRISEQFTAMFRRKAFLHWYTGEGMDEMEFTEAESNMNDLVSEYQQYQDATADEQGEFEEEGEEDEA
T1 sequence (P02550 whole entry partner): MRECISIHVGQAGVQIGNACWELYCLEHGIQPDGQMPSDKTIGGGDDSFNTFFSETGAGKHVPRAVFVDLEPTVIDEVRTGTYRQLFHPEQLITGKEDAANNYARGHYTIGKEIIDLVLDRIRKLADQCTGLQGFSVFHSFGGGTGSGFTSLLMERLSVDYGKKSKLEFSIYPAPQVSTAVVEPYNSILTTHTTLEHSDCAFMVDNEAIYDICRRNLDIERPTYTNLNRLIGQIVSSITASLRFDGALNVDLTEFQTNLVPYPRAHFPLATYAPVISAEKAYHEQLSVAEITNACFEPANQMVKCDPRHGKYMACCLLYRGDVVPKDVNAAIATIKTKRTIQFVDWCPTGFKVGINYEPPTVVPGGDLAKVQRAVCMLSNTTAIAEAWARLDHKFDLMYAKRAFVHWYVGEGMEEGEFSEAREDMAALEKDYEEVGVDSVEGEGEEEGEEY

For `C#CCCCc1nc(=O)c2c(-c3ccccc3)c(C(=O)c3ccccc3)[nH]c2[nH]1` [Compound 1, 6-Benzoyl-2-(pent-4-yn-1-yl)-5-phenyl-1,7-dihydro-4H-pyrrolo[2,3-d]pyrimidin-4-one], the GI50 (PNT1A cells; read-out: PNT1A GI50(mM)) was 36 ± 9 nM, the “apoptosis at the 30 hour time point (Annexin V fluorescence)” value (HeLa cells [1]) was “no significant differences” and the “total numbers of cells that died following mitotic arrest” value (HeLa cells [1]) was 75%. For the same compound, the GI50 (MCF-7 cells) was 35 nM, the GI50 values (human colon cancer lines) was “approaching single-digit nanomolar values” and the body weight (colon cancer) was “maintaining body weight”. For the same compound, the side effects (colon cancer) was “no observable side effects”, the tumor size (colon cancer) was “significant tumor size reduction” and the “activity against WI38 compared to four colorectal cancer cell lines” value [2] was “approximately 1000 fold”.

`C#CCCCc1nc(=O)c2c(-c3ccccc3)c(C(=O)c3ccc(OCCOCC)cc3)[nH]c2[nH]1` [Compound 33, 6-[4-(2-Ethoxyethoxy)benzoyl]-2-(pent-4-yn-1-yl)-5-phenyl-1,7-dihydro-4H-pyrrolo[2,3-d]pyrimidin-4-one] gave a GI50 (HeLa cells [3]) of 0.015 ± 0.004 µM, a GI50 (PANC-1 cells) of 15 nM and a GI50 (PNT1A cells; molecular formula strings CSV, read-out: PNT1A GI50) of 24 ± 5 nM. The “effect on in vitro tubulin polymerization” value (tubulin) was “potent inhibition of microtubule assembly; also recorded: completely suppress tubulin polymerization”, the “apoptosis at the 30 hour time point (Annexin V fluorescence)” value (HeLa cells [1]) was “no significant differences” and the “total numbers of cells that died following mitotic arrest” value (HeLa cells [1]) was 86%. The “effect on interphase microtubules” value (HeLa cells [4]; at GI50 concentrations) was “no striking effects on interphase microtubules”, the “effect on spindle morphology” value (HeLa cells [4]; at GI50 concentrations) was “remarkable effects on the spindle morphology” and the syntelic chromosome attachments (HeLa cells [4]; lower concentrations (GI25)) was “still prevalent”. The “mitotic progression in live cell imaging” value (HeLa cells [5]) was “various responses ranging from correcting the syntelic attachments and progressing through mitosis to prolonged prometaphase arrest, followed by mitotic exit and/or cell death”.
